Values quoted from earlier work in patent US6524619B2, “Dosage forms useful for modifying conditions and functions associated with hearing loss and/or tinnitus” (Chronorx, Inc., priority 2000, dated 2003).
Like-named read-outs stand apart in the source and are kept apart here. Values belong to the compound of their own block, whether it stands above or below them.

Legend:
[1] = in vivo
[2] = tested on: NMDA receptor; conditions: rat, iontophoresis
[3] = tested on: noise-induced permanent hearing threshold shifts (NIPTS); conditions: 167 mg elemental Mg^2+ daily, 2 months, 300 recruits
[4] = tested on: GSHPx; conditions: following supplementation
[5] = tested on: red cell membrane; conditions: 300 mg tid after meals for 3 months
[6] = 3 mg ingested, within 20 min
[7] = tested on: GSHPx; conditions: within 30 minutes, exogenously administered
[8] = 80 mg orally
[9] = tested on: outer cochlear hair cells; conditions: rat, postmortem
[10] = rats, oral (C14) LA
[11] = humans, 200 mg oral dose
[12] = tested on: bovine aortic endothelial cells (BAECs); conditions: LA added before AGE exposure
[13] = tested on: tinnitus and SNHL; conditions: marginally Zn^2+ deficient elderly adults
[14] = not given; remark: listed apart in the source
[15] = not given; remark: listed apart in the source
[16] = levels up to 1 mg per day
[17] = one small study
[18] = 100 mg oral
[19] = not given; remark: listed apart in the source
[20] = tested on: blood viscosity and red cell membrane lipid peroxidation; conditions: 300 mg tid 3 months, Type 2 diabetes mellitus
[21] = tested on: hydrogen peroxide-induced platelet aggregation
[22] = tested on: senile deafness; conditions: 1 microgram/day for 6 to 10 months, 12 patients suspected of abnormal bone metabolism
[23] = tested on: peritoneal macrophages; conditions: mice
[24] = tested on: RBC GSH system; conditions: selenium treatment

Compound: [Mg+2] [Mg^2+, Magnesium]
maximum intestinal bulk absorption [1]: 8 mEq per meal
excitatory response of the cortical striatum [2]: potent attenuation
NIPTS frequency and severity [3]: significantly more frequent and more severe in the placebo group

Compound: Cc1c(C)c2c(c(C)c1O)CC[C@@](C)(CCC[C@H](C)CCC[C@H](C)CCCC(C)C)O2 [alpha-tocopherol, D, alpha-tocopherol]
GSHPx activities [4]: increase as much as twofold
reduction of lipid peroxidation stress in red cell membrane (MDA) [5]: 0.17 ± 0.13 nmol

increase in the AUC (10-fold increase in the dose): 62 fold
AUC relative to Enduramide (higher doses): 1.7 times
Compound: NC(=O)c1cccnc1 [standard nicotinamide, nicotinamide]

Compound: COc1ccc2[nH]cc(CCNC(C)=O)c2c1 [Melatonin, N-acetyl-5-methoxytryptamine]
excitatory response of the cortical striatum [2]: potent attenuation
serum melatonin [6]: 3561 ± 1201 pg/mL
rise in GSHPx activity in the brain [7]: 2 fold
absorption constant (ka) [8]: 1.72 h⁻¹
elimination constant (kel) [8]: 0.87 h⁻¹
time of peak serum melatonin after administration [8]: 60 to 150 min
time peak serum melatonin remains stable [8]: approximately 1.5 hours
prolongation of hair cell activity after death compared to untreated animals [9]: up to 7 times

plasma concentration-time curve area (FAUC) relative to intravenous administration [10]: 66%
absolute bioavailability [11]: 29.1+/−10.3%
Compound: O=C(O)CCCCC1CCSS1 (centres unmarked) [LA, 1,2-dithiolane-3-pentanoic acid]
depletion of GSH and ascorbic acid [12]: completely prevents depletion of GSH and ascorbic acid

Compound: [Zn+2] [Zn^2+, Zinc]
reduction of tinnitus and SNHL [13]: about one-third
increase of mean plasma Zn^+2 above pre-load levels ([14]; 11-fold increase in intake): 37%
ingested Zn^+2 entering the plasma ([14]; in vivo): About 37%
time by which gastrointestinal absorption is essentially completed ([14]; in vivo): ≤ 4 h
excitatory response of the cortical striatum [2]: potent attenuation

Compound: CC(C)(C)[C@]1(O)CC2OC(=O)CC23C(=O)OC2OC(=O)[C@H](O)C231 (some centres unmarked) [Bilobalide]
bioavailability coefficient (FAUC), mean ([15]; given orally during fasting): 0.79(+/−0.3)

Compound: C[C@@H]1C(=O)O[C@H]2C[C@@]34[C@H]5C[C@@H](C(C)(C)C)[C@]36[C@@H](OC(=O)[C@@H]6O)O[C@@]4(C(=O)O5)[C@]21O [Ginkgolide A]
bioavailability coefficient (FAUC), mean ([15]; given orally during fasting): 0.80 (+/−0.09)

Compound: [Cr] [Cr, Chromium]
signs of toxicity [16]: no documented signs of toxicity
average apparent net absorption of Cr [17]: 1.8%

time of second plasma peak after dosing ([18]; most of the subjects): 24 h
mean plasma CoQ10 level peak ([18]; sixteen healthy male subjects): 1.004+/−0.37 micrograms/ml
Compound: d5-CoQ10

increase of CoQ10 in plasma ([19]; granular preparations): 168%
elevation of CoQ10 in plasma ([19]; supplemental oil-based capsules): 178%
Compound: COC1=C(OC)C(=O)C(C/C=C(\C)CC/C=C(\C)CC/C=C(\C)CC/C=C(\C)CC/C=C(\C)CC/C=C(\C)CC/C=C(\C)CC/C=C(\C)CC/C=C(\C)CCC=C(C)C)=C(C)C1=O [CoQ10, Coenzyme Q10]

Compound: Cc1c(C)c2c(c(C)c1OC(=O)c1cccnc1)CC[C@@](C)(CCC[C@H](C)CCC[C@H](C)CCCC(C)C)O2 [Alpha-tocopherol nicotinate, alpha tocopherol nicotinate]
reduction of malondialdehyde (MDA) in red cell membrane [20]: 0.17 ± 0.13 nmol/L
reduction of blood viscosity ([20]; gamma=1.5 s(−1)): −2.23 +/−2.82
inhibitory effect upon hydrogen peroxide-induced platelet aggregation [21]: greater than that of either vitamin E alone or the simultaneous use of vitamin E and nicotinic acid

Compound: C=C1/C(=C\C=C2/CCC[C@]3(C)[C@@H]([C@H](C)CCCC(C)C)CC[C@@H]23)C[C@@H](O)C[C@@H]1O [1 alpha-(OH)D3]
hearing improvement [22]: hearing improvement in six ears (four patients)

Compound: O=C(O)c1cccnc1 [Nicotinic acid, reference compound]
inhibitory effect upon hydrogen peroxide-induced platelet aggregation [21]: no inhibitory effect

Compound: [Se] [Selenium]
increase in GSH content in peritoneal macrophages [23]: 36%
increase in GSHPx activity in peritoneal macrophages [23]: 30%
reduction in cell-mediated oxidation of LDL and aortic atherosclerotic lesions [23]: 46%
elevation of RBC GSHPx [24]: 64%
reduction in the RBC oxidized GSH content [24]: 39%
increase in GSH content ([24]; RBC): 11%
increase in glutathione reductase activities ([24]; RBC): 57%

bioavailability coefficient (FAUC), mean ([15]; in vivo, po): 0.88(+/−0.21)
Compound: CC1C(=O)OC2C(O)C34C5CC(C(C)(C)C)C36C(OC(=O)C6O)OC4(C(=O)O5)C12O (centres unmarked) [Ginkgolide B]
